The values below come from patent US9493506B2 (Enanta Pharmaceuticals, Inc., priority 2010, dated 2016).

Data set [1] relates to HCV replicon with a R155K mutation in a 1a-H77 background. The data set is described as follows: transient replicon assay, R155K mutation in 1a-H77 background. The note with it: Hepatitis C virus, read-out: EC50 in a transient replicon assay with a R155K mutation in a 1a-H77 background. The format is cell-based, hepatitis C virus (genotype 1a-H77). The method, boiled down: (§1)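 Transient transfection of mutant replicon RNA (1a-H77 with NS2–NS5B, or 1b-N with NS3–NS5B plus E1202G/S2204I) by electroporation into IFN-cured Huh7 cells, plated at 7.5×10^3 cells per well in DMEM with 5% FBS. Serial compound dilutions added 4 h post-transfection (0.5% DMSO final).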

Data set [2] relates to HCV replicon with a D168V mutation in a 1a-H77 background. The data set is described as follows: transient replicon assay, D168V mutation in 1a-H77 background. The data set is classed as cell-based, hepatitis C virus (genotype 1a-H77). The note with it: Hepatitis C virus, read-out: EC50 in a transient replicon assay with a D168V mutation in a 1a-H77 background. The method in brief:
as §1
(A replicon is a self-replicating genome or part of one, used to study replication in cells.)

The nature of another data set: dog PK experiment. The note with it: in vivo; for bioavailability: dog PK experiment, 3 mg/kg, read-out: F value (bioavailability); for AUC: dog, dosed at 3 mg/kg. The source says:
Those of ordinary skill in the art are aware of the biological assays utililized to test the compounds of the invention. Regarding bioavailability data (F values), a more thorough explanation can be found in Rowland, M and Tozer, T Clinical Pharmacokinetics: Concepts and Applications Lippincott, Williams & Wilkins 3rd ed. 1995, (specifically covered on page 43).

Data set [3] has as its system HCV replicon with a D168E mutation in a 1a-H77 background. The data set is described as follows: transient replicon assay, D168E mutation in 1a-H77 background. The format is cell-based, hepatitis C virus (genotype 1a-H77). The note with it: Hepatitis C virus, read-out: EC50 in a transient replicon assay with a D168E mutation in a 1a-H77 background. The method in brief: as §1

One may read the EC50 as the concentration needed to bring the measured effect to its halfway point. As usually defined, the bioavailability is dose-corrected exposure relative to a reference, in per cent. Usually AUC stands for concentration integrated over time. Read a low AUC as less exposure. Take `Cc1cc(C(=O)N[C@H]2CCCCC/C=C\[C@@H]3C[C@@]3(C(=O)NS(=O)(=O)C3CC3)NC(=O)[C@@H]3C[C@@H](Oc4nc5ccccc5nc4C(C)(F)F)CN3C2=O)no1` [Example 2, N-((2R,6S,13aS,14aR,16aS,Z)-14a-(cyclopropylsulfonylcarbamoyl)-2-(3-(1,1-difluoroethyl)quinoxalin-2-yloxy)-5,16-dioxo-1,2,3,5,6,7,8,9,10,11,13a,14,14a,15,16,16a-hexadecahydrocyclopropa[e]pyrrolo[1,2-a][1,4]diazacyclopentadecin-6-yl)-5-methylisoxazole-3-carboxamide]: the concentration for a half-maximal effect (EC50) in data set [1] was less than 1 nM; in data set [2] it was 25 to 50 nM; in data set [3] it was less than 3 nM. The bioavailability in “dog PK experiment” is greater than 100%. Also, in the data set “dog PK experiment”, the AUC worked out at 4500 ng·h/mL.
For `Cc1cc(C(=O)N[C@H]2CCCCC/C=C\[C@@H]3C[C@@]3(C(=O)NS(=O)(=O)C3CC3)NC(=O)[C@@H]3C[C@@H](Oc4nc5ccccc5nc4C(F)(F)F)CN3C2=O)no1` [Example 10, N-((2R,6S,13aS,14aR,16aS,Z)-14a-(cyclopropylsulfonylcarbamoyl)-5,16-dioxo-2-(3-(trifluoromethyl)quinoxalin-2-yloxy)-1,2,3,5,6,7,8,9,10,11,13a,14,14a,15,16,16a-hexadecahydrocyclopropa[e]pyrrolo[1,2-a][1,4]diazacyclopentadecin-6-yl)-5-methylisoxazole-3-carboxamide] the same measures were less than 1 nM, 25 to 50 nM, less than 3 nM, greater than 100% and 27000 ng·h/mL.
For `O=C(N[C@H]1CCCCC/C=C\[C@@H]2C[C@@]2(C(=O)NS(=O)(=O)C2CC2)NC(=O)[C@@H]2C[C@@H](Oc3nc4ccccc4nc3C(F)(F)F)CN2C1=O)c1ccon1` [Example 15, N-((2R,6S,13aS,14aR,16aS,Z)-14a-(cyclopropylsulfonylcarbamoyl)-5,16-dioxo-2-(3-(trifluoromethyl)quinoxalin-2-yloxy)-1,2,3,5,6,7,8,9,10,11,13a,14,14a,15,16,16a-hexadecahydrocyclopropa[e]pyrrolo[1,2-a][1,4]diazacyclopentadecin-6-yl)isoxazole-3-carboxamide], in the data set “dog PK experiment”, the bioavailability was greater than 100% and the AUC was 3300 ng·h/mL.
Take `Cc1onc(C(=O)N[C@H]2CCCCC/C=C\[C@@H]3C[C@@]3(C(=O)NS(=O)(=O)C3CC3)NC(=O)[C@@H]3C[C@@H](Oc4nc5ccccc5nc4C(F)(F)F)CN3C2=O)c1C` [Example 16, N-((2R,6S,13aS,14aR,16aS,Z)-14a-(cyclopropylsulfonylcarbamoyl)-5,16-dioxo-2-(3-(trifluoromethyl)quinoxalin-2-yloxy)-1,2,3,5,6,7,8,9,10,11,13a,14,14a,15,16,16-hexadecahydrocyclopropa[e]pyrrolo[1,2-a][1,4]diazacyclopentadecin-6-yl)-4,5-dimethylisoxazole-3-carboxamide]: the EC50 in data set [1] was less than 1 nM; in data set [2] it was less than 25 nM; in data set [3] it was less than 3 nM. In addition, in “dog PK experiment”, the bioavailability worked out at 66%. This compound also showed an AUC in “dog PK experiment” of 2100 ng·h/mL.
As to `CCc1nc2ccc(F)cc2nc1O[C@@H]1C[C@H]2C(=O)N[C@]3(C(=O)NS(=O)(=O)C4CC4)C[C@H]3/C=C\CCCCC[C@H](NC(=O)c3noc(C)c3C)C(=O)N2C1` [Example 123, N-((2R,6S,13aS,14aR,16aS,Z)-14a-(cyclopropylsulfonylcarbamoyl)-2-(3-ethyl-7-fluoroquinoxalin-2-yloxy)-5,16-dioxo-1,2,3,5,6,7,8,9,10,11,13a,14,14a,15,16,16a-hexadecahydrocyclopropa[e]pyrrolo[1,2-a][1,4]diazacyclopentadecin-6-yl)-4,5-dimethylisoxazole-3-carboxamide], the EC50 in data set [1] was in the range of 1 to 10 nM; in data set [2] it was 50 to 250 nM; in data set [3], 3 to 20 nM.
`CCc1nc2ccc(F)cc2nc1O[C@@H]1C[C@H]2C(=O)N[C@]3(C(=O)NS(=O)(=O)C4CC4)C[C@H]3/C=C\CCCCC[C@H](NC(=O)c3cc(C)on3)C(=O)N2C1` [Example 124, N-((2R,6S,13aS,14aR,16aS,Z)-14a-(cyclopropylsulfonylcarbamoyl)-2-(3-ethyl-7-fluoroquinoxalin-2-yloxy)-5,16-dioxo-1,2,3,5,6,7,8,9,10,11,13a,14,14a,15,16,16a-hexadecahydrocyclopropa[e]pyrrolo[1,2-a][1,4]diazacyclopentadecin-6-yl)-5-methylisoxazole-3-carboxamide]: the figures for the half-maximal effective concentration (EC50) in data set [1], in data set [2] and in data set [3] were 1 to 10 nM, 50 to 250 nM and 20 to 50 nM, respectively.
As to `CCc1nc2ccc(F)cc2nc1O[C@@H]1C[C@H]2C(=O)N[C@]3(C(=O)NS(=O)(=O)C4(C)CC4)C[C@H]3/C=C\CCCCC[C@H](NC(=O)OC(C)(C)C)C(=O)N2C1` [Example 125, tert-butyl (2R,6S,13aS,14aR,16aS,Z)-2-(3-ethyl-7-fluoroquinoxalin-2-yloxy)-14a-(1-methylcyclopropylsulfonylcarbamoyl)-5,16-dioxo-1,2,3,5,6,7,8,9,10,11,13a,14,14a,15,16,16a-hexadecahydrocyclopropa[e]pyrrolo[1,2-a][1,4]diazacyclopentadecin-6-ylcarbamate], the EC50 in data set [1] was less than 1 nM; in data set [2], 25 to 50 nM; in data set [3], 3 to 20 nM.
For `CCc1nc2ccc(F)cc2nc1O[C@@H]1C[C@H]2C(=O)N[C@]3(C(=O)NS(=O)(=O)C4(C)CC4)C[C@H]3/C=C\CCCCC[C@H](NC(=O)c3cc(C4CC4)on3)C(=O)N2C1` [Example 151, 5-cyclopropyl-N-((2R,6S,13aS,14aR,16aS,Z)-2-(3-ethyl-7-fluoroquinoxalin-2-yloxy)-14a-(1-methylcyclopropylsulfonylcarbamoyl)-5,16-dioxo-1,2,3,5,6,7,8,9,10,11,13a,14,14a,15,16,16a-hexadecahydrocyclopropa[e]pyrrolo[1,2-a][1,4]diazacyclopentadecin-6-yl)isoxazole-3-carboxamide] the same measures were 1 to 10 nM, less than 25 nM and 3 to 20 nM.
The corresponding values for `CCc1nc2cccc(F)c2nc1O[C@@H]1C[C@H]2C(=O)N[C@]3(C(=O)NS(=O)(=O)C4CC4)C[C@H]3/C=C\CCCCC[C@H](NC(=O)OC(C)(C)C)C(=O)N2C1` [Example 160, tert-butyl (2R,6S,13aS,14aR,16aS,Z)-14a-(cyclopropylsulfonylcarbamoyl)-2-(3-ethyl-8-fluoroquinoxalin-2-yloxy)-5,16-dioxo-1,2,3,5,6,7,8,9,10,11,13a,14,14a,15,16,16a-hexadecahydrocyclopropa[e]pyrrolo[1,2-a][1,4]diazacyclopentadecin-6-ylcarbamate] are 1 to 10 nM, 50 to 250 nM and 20 to 50 nM.
For `CCc1nc2cccc(F)c2nc1O[C@@H]1C[C@H]2C(=O)N[C@]3(C(=O)NS(=O)(=O)C4CC4)C[C@H]3/C=C\CCCCC[C@H](NC(=O)c3ccon3)C(=O)N2C1` [Example 161, N-((2R,6S,13aS,14aR,16aS,Z)-14a-(cyclopropylsulfonylcarbamoyl)-2-(3-ethyl-8-fluoroquinoxalin-2-yloxy)-5,16-dioxo-1,2,3,5,6,7,8,9,10,11,13a,14,14a,15,16,16a-hexadecahydrocyclopropa[e]pyrrolo[1,2-a][1,4]diazacyclopentadecin-6-yl)isoxazole-3-carboxamide] the same measures were 1 to 10 nM, 50 to 250 nM and 3 to 20 nM.
Consider `CCc1nc2cccc(F)c2nc1O[C@@H]1C[C@H]2C(=O)N[C@]3(C(=O)NS(=O)(=O)C4CC4)C[C@H]3/C=C\CCCCC[C@H](NC(=O)c3cc(C)on3)C(=O)N2C1` [Example 162, N-((2R,6S,13aS,14aR,16aS,Z)-14a-(cyclopropylsulfonylcarbamoyl)-2-(3-ethyl-8-fluoroquinoxalin-2-yloxy)-5,16-dioxo-1,2,3,5,6,7,8,9,10,11,13a,14,14a,15,16,16a-hexadecahydrocyclopropa[e]pyrrolo[1,2-a][1,4]diazacyclopentadecin-6-yl)-5-methylisoxazole-3-carboxamide], for which the EC50 in data set [1] was 1 to 10 nM; in data set [2], 50 to 250 nM; in data set [3], 3 to 20 nM.
The corresponding values for `CCc1nc2cccc(F)c2nc1O[C@@H]1C[C@H]2C(=O)N[C@]3(C(=O)NS(=O)(=O)C4CC4)C[C@H]3/C=C\CCCCC[C@H](NC(=O)c3noc(C)c3C)C(=O)N2C1` [Example 163, N-((2R,6S,13aS,14aR,16aS,Z)-14a-(cyclopropylsulfonylcarbamoyl)-2-(3-ethyl-8-fluoroquinoxalin-2-yloxy)-5,16-dioxo-1,2,3,5,6,7,8,9,10,11,13a,14,14a,15,16,16a-hexadecahydrocyclopropa[e]pyrrolo[1,2-a][1,4]diazacyclopentadecin-6-yl)-4,5-dimethylisoxazole isoxazole-3-carboxamide] are less than 1 nM, 25 to 50 nM and less than 3 nM.
